Assays:
Type in all cases: functional
PBMC [1] = experiment: Inhibition of LPS-stimulated TNFalpha secretion in human PBMC cells at 10 uM after 24 hrs by ELISA
PBMC [2] = experiment: Inhibition of LPS-stimulated TNFalpha secretion in human PBMC cells at 50 uM after 24 hrs by ELISA
THP-1 [3] = experiment: Inhibition of LPS-stimulated TNFalpha secretion in human THP1 cells at 50 uM after 24 hrs by ELISA; conditions: THP-1, 24 h
THP-1 [4] = experiment: Inhibition of LPS-stimulated TNFalpha secretion in human THP1 cells at 10 uM after 24 hrs by ELISA; conditions: THP-1, 24 h

SMILES | inhibition at 10 µM (PBMC [1]) [%] | inhibition at 50 µM (PBMC [2]) [%] | inhibition at 50 µM (THP-1 [3]) [%] | inhibition at 10 µM (THP-1 [4]) [%]
Nc1c(-c2ccccc2)c2ccccc2[nH]c1=O | 29 | 79 |  | 
COCCN(CCOC)c1c(-c2ccccc2)c2ccccc2[nH]c1=O |  |  | 59 | 0
CN(C)C(=O)N1CCN(c2c(-c3ccccc3)c3ccccc3[nH]c2=O)CC1 |  |  | 43 | 21
COc1c(-c2ccccc2)c2ccccc2[nH]c1=O | 24 | 67 | 10 | 7
CCc1c(-c2ccccc2)c2ccccc2[nH]c1=O | 32 | 50 | 80 | 3
CN(C)c1c(-c2ccccc2)c2ccccc2[nH]c1=O |  |  | 83 | 0
CNc1c(-c2ccccc2)c2ccccc2[nH]c1=O | 36 | 67 | 97 | 50
CN(CCO)c1c(-c2ccccc2)c2ccccc2[nH]c1=O |  |  | 21 | 0
CSc1c(-c2ccccc2)c2ccccc2[nH]c1=O | 78 | 95 | 93 | 49
CSc1c(-c2ccccc2)c2cc([N+](=O)[O-])ccc2[nH]c1=O | 86 | 94 |  | 
